Results reported in patent US20230085307A1, “PYRIDAZINONE COMPOUND AND HERBICIDE” (NISSAN CHEMICAL CORPORATION, priority 2019, published 2023).

Legend:
barnyard grass [1] = assay: Test Example 3: herbicidal effect by foliage application, Wagner pot (Table 18, symbol H); format: in vivo, barnyard grass (Echinochloa crus-galli); conditions: 320 g/ha
Outline: (§1)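 Plants were sown in alluvial soil held under 0.1–0.5 cm standing water and grown 14 days in a greenhouse at 25–30 °C. An emulsifiable formulation, water-diluted to the set dose, was then sprayed onto the foliage, and effects were scored three weeks later using previously defined criteria.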

Chinese sprangletop = assay: Test Example 3: herbicidal effect by foliage application, Wagner pot (Table 18, symbol D); format: in vivo, chinese sprangletop (Leptochloa chinensis); conditions: 320 g/ha
Outline: as §1

rice flat sedge = assay: Test Example 3: herbicidal effect by foliage application, Wagner pot (Table 18, symbol E); format: in vivo, rice flat sedge (Cyperus iria); conditions: 320 g/ha
Outline: as §1

southern crabgrass [2] = assay: Test Example 4: herbicidal effect by soil treatment (Table 19, symbol F); format: in vivo, southern crabgrass (Digitaria ciliaris); conditions: amount of applied herbicide 320 g/ha
Outline: (§2)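 Herbicidal effect was rated 3 weeks after treatment, using the scoring criteria of an earlier test. The compound, formulated as an emulsion and diluted in water to a set herbicide amount, had been sprayed uniformly on soil over freshly sown seeds. Growth took place in a greenhouse at 25° C. to 30° C.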

green foxtail [3] = assay: Test Example 4: herbicidal effect by soil treatment (Table 19, symbol G); format: in vivo, green foxtail (Setaria viridis); conditions: amount of applied herbicide 320 g/ha
Outline: as §2

barnyard grass [4] = assay: Test Example 4: herbicidal effect by soil treatment (Table 19, symbol H); format: in vivo, barnyard grass (Echinochloa crus-galli); conditions: amount of applied herbicide 320 g/ha
Outline: as §2

wild oat [5] = assay: Test Example 4: herbicidal effect by soil treatment (Table 19, symbol I); format: in vivo, wild oat (Avena fatua); conditions: amount of applied herbicide 320 g/ha
Outline: as §2

blackgrass [6] = assay: Test Example 4: herbicidal effect by soil treatment (Table 19, symbol J); format: in vivo, blackgrass (Alopecurus myosuroides); conditions: amount of applied herbicide 320 g/ha
Outline: as §2

Italian ryegrass [7] = assay: Test Example 4: herbicidal effect by soil treatment (Table 19, symbol K); format: in vivo, Italian ryegrass (Lolium multiflorum); conditions: amount of applied herbicide 320 g/ha
Outline: as §2

windgrass [8] = assay: Test Example 4: herbicidal effect by soil treatment (Table 19, symbol L); format: in vivo, windgrass (Apera spica-venti); conditions: amount of applied herbicide 320 g/ha
Outline: as §2

velvetleaf [9] = assay: Test Example 4: herbicidal effect by soil treatment (Table 19, symbol M); format: in vivo, velvetleaf (Abutilon theophrasti); conditions: amount of applied herbicide 320 g/ha
Outline: as §2

redroot pigweed [10] = assay: Test Example 4: herbicidal effect by soil treatment (Table 19, symbol N); format: in vivo, redroot pigweed (Amaranthus retroflexus); conditions: amount of applied herbicide 320 g/ha
Outline: as §2

lambsquarters [11] = assay: Test Example 4: herbicidal effect by soil treatment (Table 19, symbol O); format: in vivo, lambsquarters (Chenopodium album); conditions: amount of applied herbicide 320 g/ha
Outline: as §2

chickweed [12] = assay: Test Example 4: herbicidal effect by soil treatment (Table 19, symbol P); format: in vivo, common chickweed (Stellaria media); conditions: amount of applied herbicide 320 g/ha
Outline: as §2

persian speedwell [13] = assay: Test Example 4: herbicidal effect by soil treatment (Table 19, symbol R); format: in vivo, Persian speedwell (Veronica persica); conditions: amount of applied herbicide 320 g/ha
Outline: as §2

southern crabgrass [14] = assay: Test Example 5: herbicidal effect by foliage application, plastic box (Table 20, symbol F); format: in vivo, southern crabgrass (Digitaria ciliaris); conditions: foliage application, 320 g/ha, three weeks after application
Outline: (§3)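 Foliar spray test: emulsion formulation diluted in water to a set application rate, sprayed onto 14-day-old plants raised in diluvial soil at 25° C to 30° C under glass. Both herbicidal effect and crop effect rated visually three weeks later.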

green foxtail [15] = assay: Test Example 5: herbicidal effect by foliage application, plastic box (Table 20, symbol G); format: in vivo, green foxtail (Setaria viridis); conditions: foliage application, 320 g/ha, three weeks after application
Outline: as §3

barnyard grass [16] = assay: Test Example 5: herbicidal effect by foliage application, plastic box (Table 20, symbol H); format: in vivo, barnyard grass (Echinochloa crus-galli); conditions: foliage application, 320 g/ha, three weeks after application
Outline: as §3

wild oat [17] = assay: Test Example 5: herbicidal effect by foliage application, plastic box (Table 20, symbol I); format: in vivo, wild oat (Avena fatua); conditions: foliage application, 320 g/ha, three weeks after application
Outline: as §3

blackgrass [18] = assay: Test Example 5: herbicidal effect by foliage application, plastic box (Table 20, symbol J); format: in vivo, blackgrass (Alopecurus myosuroides); conditions: foliage application, 320 g/ha, three weeks after application
Outline: as §3

Italian ryegrass [19] = assay: Test Example 5: herbicidal effect by foliage application, plastic box (Table 20, symbol K); format: in vivo, Italian ryegrass (Lolium multiflorum); conditions: foliage application, 320 g/ha, three weeks after application
Outline: as §3

windgrass [20] = assay: Test Example 5: herbicidal effect by foliage application, plastic box (Table 20, symbol L); format: in vivo, windgrass (Apera spica-venti); conditions: foliage application, 320 g/ha, three weeks after application
Outline: as §3

velvetleaf [21] = assay: Test Example 5: herbicidal effect by foliage application, plastic box (Table 20, symbol M); format: in vivo, velvetleaf (Abutilon theophrasti); conditions: foliage application, 320 g/ha, three weeks after application
Outline: as §3

redroot pigweed [22] = assay: Test Example 5: herbicidal effect by foliage application, plastic box (Table 20, symbol N); format: in vivo, redroot pigweed (Amaranthus retroflexus); conditions: foliage application, 320 g/ha, three weeks after application
Outline: as §3

lambsquarters [23] = assay: Test Example 5: herbicidal effect by foliage application, plastic box (Table 20, symbol O); format: in vivo, lambsquarters (Chenopodium album); conditions: foliage application, 320 g/ha, three weeks after application
Outline: as §3

chickweed [24] = assay: Test Example 5: herbicidal effect by foliage application, plastic box (Table 20, symbol P); format: in vivo, common chickweed (Stellaria media); conditions: foliage application, 320 g/ha, three weeks after application
Outline: as §3

persian speedwell [25] = assay: Test Example 5: herbicidal effect by foliage application, plastic box (Table 20, symbol R); format: in vivo, Persian speedwell (Veronica persica); conditions: foliage application, 320 g/ha, three weeks after application
Outline: as §3

COc1ccc(-c2sc3cc(Cl)ccc3c2-c2c(O)c(C)nn(C)c2=O)cc1 [3-037]
herbicidal effect on barnyard grass (H) (barnyard grass [1]): 4 (Herbicidal rate of 70% or more and less than 90%) | herbicidal effect on Chinese sprangletop (D) (Chinese sprangletop): 3 (Herbicidal rate of 40% or more and less than 70%) | herbicidal effect on rice flat sedge (E) (rice flat sedge): 4 (Herbicidal rate of 70% or more and less than 90%) | F: southern crabgrass, herbicidal effect grade (southern crabgrass [2]): 0 (Herbicidal rate of 5% or less (almost no effect)) | G: green foxtail, herbicidal effect grade (green foxtail [3]): 0 (Herbicidal rate of 5% or less (almost no effect)) | H: barnyard grass, herbicidal effect grade (barnyard grass [4]): 0 (Herbicidal rate of 5% or less (almost no effect)) | I: wild oat, herbicidal effect grade (wild oat [5]): 0 (Herbicidal rate of 5% or less (almost no effect)) | J: blackgrass, herbicidal effect grade (blackgrass [6]): 0 (Herbicidal rate of 5% or less (almost no effect)) | K: Italian ryegrass, herbicidal effect grade (Italian ryegrass [7]): 0 (Herbicidal rate of 5% or less (almost no effect)) | L: windgrass, herbicidal effect grade (windgrass [8]): 0 (Herbicidal rate of 5% or less (almost no effect)) | M: velvetleaf, herbicidal effect grade (velvetleaf [9]): 0 (Herbicidal rate of 5% or less (almost no effect)) | N: redroot pigweed, herbicidal effect grade (redroot pigweed [10]): 0 (Herbicidal rate of 5% or less (almost no effect)) | O: lambsquarters, herbicidal effect grade (lambsquarters [11]): 3 (Herbicidal rate of 40% or more and less than 70%) | P: chickweed, herbicidal effect grade (chickweed [12]): 3 (Herbicidal rate of 40% or more and less than 70%) | R: persian speedwell, herbicidal effect grade (persian speedwell [13]): 3 (Herbicidal rate of 40% or more and less than 70%) | F: southern crabgrass, herbicidal effect grade (southern crabgrass [14]): 0 (Herbicidal rate of 5% or less (almost no effect)) | G: green foxtail, herbicidal effect grade (green foxtail [15]): 0 (Herbicidal rate of 5% or less (almost no effect)) | H: barnyard grass, herbicidal effect grade (barnyard grass [16]): 0 (Herbicidal rate of 5% or less (almost no effect)) | I: wild oat, herbicidal effect grade (wild oat [17]): 0 (Herbicidal rate of 5% or less (almost no effect)) | J: blackgrass, herbicidal effect grade (blackgrass [18]): 0 (Herbicidal rate of 5% or less (almost no effect)) | K: Italian ryegrass, herbicidal effect grade (Italian ryegrass [19]): 0 (Herbicidal rate of 5% or less (almost no effect)) | L: windgrass, herbicidal effect grade (windgrass [20]): 0 (Herbicidal rate of 5% or less (almost no effect)) | M: velvetleaf, herbicidal effect grade (velvetleaf [21]): 5 (Herbicidal rate of 90% or more (almost completely withered)) | N: redroot pigweed, herbicidal effect grade (redroot pigweed [22]): 5 (Herbicidal rate of 90% or more (almost completely withered)) | O: lambsquarters, herbicidal effect grade (lambsquarters [23]): 4 (Herbicidal rate of 70% or more and less than 90%) | P: chickweed, herbicidal effect grade (chickweed [24]): 5 (Herbicidal rate of 90% or more (almost completely withered)) | R: persian speedwell, herbicidal effect grade (persian speedwell [25]): 5 (Herbicidal rate of 90% or more (almost completely withered))
